How the values were obtained:
[1] = tested on: Podosphaera leucotricha; assay: In vivo test on Podosphaera leucotricha (apple mildew), preventive spray; conditions: 240 h, apple young plants, evaluated 10 days after inoculation, good (at least 70%) to total protection
Experimental: In Vivo Test on Podosphaera leucotncha (Apple Mildew) [table] To produce a suitable preparation of active compound, 1 part by weight of active compound is mixed with the stated amounts of solvent and emulsifier, and the concentrate is diluted with water to the desired concentration. Young plants are sprayed with the preparation of active compound at the stated rate of application. After the spray coating has dried on, the plants are inoculated with an aqueous spore suspension of the causal agent of apple mildew (Podosphaera leucobicha). The plants are then placed in a greenhouse at approximately 23° C. and a relative atmospheric humidity of approximately 70%. The test is evaluated 10 days after the inoculation. Under these conditions, good (at least 70%) to total protection is observed at a dose of 100 ppm with the following compounds: 104, 160, 176, 177, 180, 186, 187, 188, 192, 194, 196, 198, 203, 204, 205, 207, 209, 210, 211, 212, 213, 218 and 446.

[2] = tested on: Alternaria solani; assay: In vivo test on Alternaria solani (tomato leaf spot), preventive spray; conditions: 168 h, tomato young plants, evaluated 7 days after inoculation, good (at least 70%) to total protection
Experimental: In Vivo Test on Alternaria Solani (Tomato Leaf Spot) [table] To produce a suitable preparation of active compound, 1 part by weight of active compound is mixed with the stated amounts of solvent and emulsifier, and the concentrate is diluted with water to the desired concentration. Young plants are sprayed with the preparation of active compound at the stated rate of application. After the spray coating has dried on, the plants are inoculated with an aqueous spore suspension of Alternaria solani. The plants remain for one day in an incubation cabinet at approximately 20° C. and a relative atmospheric humidity of 100%. Then the plants are placed in an incubation cabinet at approximately 20° C. and a relative atmospheric humidity of 96%. The test is evaluated 7 days after the inoculation. Under these conditions, good (at least 70%) to total protection is observed at a dose of 500 ppm with the following compounds 110, 143, 160, 175, 176, 178, 179, 180, 186, 187, 189, 192, 196, 198, 203, 204, 205, 209, 210, 212, 214, 215 and 652.

[3] = logP by HPLC on reversed-phase column (C 18), EEC Directive 79/B31 Annex V.A8, methods A and B; assay type: physicochemical; conditions: linear gradient 10% to 90% acetonitrile; for chromatographic logP: reversed-phase HPLC column (C 18)
Experimental: Calibration was carried out using unbranched alkan-2-ones (having 3 to 16 carbon atoms) with known logP values (determination of the logP values by the retention times using linear interpolation between two successive alkanones).

[4] = tested on: Puccinia recondita; assay: In vivo test on Puccinia recondita f. sp. tritici (wheat brown rust); conditions: 240 h, wheat plants (Scipion variety), grading 10 days after contamination, good (at least 70%) or total protection
Experimental: In vivo Test on Puccinia reconditef. Sp. tritici (Wheat Brown Rust)
(§1) The active ingredients tested are prepared by homogenisation in a mixture of acetone/tween/DMSO, then diluted with water to obtain the desired active material concentration. Wheat plants (Scipion variety) in starter cups, sown on 50/50 peat soil-pozzolana substrate and grown at 12° C., are treated at the 1-leaf stage (10 cm tall) by spraying with the active ingredient prepared as described above. Plants, used as controls, are treated with the mixture of acetone/tween/DMSO/water not containing the active material.
After 24 hours, the plants are contaminated by spraying the leaves with an aqueous suspension of Puccinia recondita spores (100,000 spores per ml). The spores are collected from a 10-day-old contaminated wheat and are suspended in water containing 2.5 ml/of tween 80 10%. The contaminated wheat plants are incubated for 24 hours at 20° C. and at 100% relative humidity, and then for 10 days at 20° C. and at 70% relative humidity. Grading is carried out 10 days after the contamination, in comparison with the control plants.

[5] = tested on: Pyrenophora teres; assay: In vivo test on Pyrenophora teres (barley net blotch); conditions: 288 h, barley plants (Express variety), grading 12 days after contamination, good (at least 70%) or total protection
Experimental: In Vivo Test on Pyrenophore teres (Barley Net Blotch)
as §1, with “material concentration. Barley plants (Express” for “material concentration. Wheat plants (Scipion”, “Barley plants (Express variety) in” for “Wheat plants (Scipion variety) in”, “sown on a 50/50 peat” for “sown on 50/50 peat”
After 24 hours, the plants are contaminated by spraying them with an aqueous suspension of Pyrenophora teres spores (12,000 spores per ml). The spores are collected from a 12-day-old culture. The contaminated barley plants are incubated for 24 hours at about 20° C. and at 100% relative humidity, and then for 12 days at 80% relative humidity.

[6] = tested on: Mycosphaerella graminicola; assay: In vivo test on Mycosphaerella graminicola (wheat leaf spot); conditions: Zymoseptoria tritici, wheat plants (Scipion variety), grading 21 to 28 days after contamination, good (at least 70%) or total protection, read-out: protection (% of efficacy)
Experimental: In vivo Test on Mycosphaerella graminicola (Wheat Leaf Spot)
The active ingredients tested are prepared by homogenisation in a mixture of acetone/tween/DMSO, and then diluted with water to obtain the desired active material concentration.
Wheat plants (Scipion variety), sown on a 50/50 peat soil-pozzolana substrate in starter cups and grown at 12° C., are treated at the 1-leaf stage (10 cm tall) by spraying with the active ingredient prepared as described above.
Plants, used as controls, are treated with the mixture of acetone/tween/DMSO/water not containing the active material.
After 24 hours, the plants are contaminated by spraying them with an aqueous suspension of Mycosphaerella graminicola spores (500 000 spores per ml). The spores are collected from a 7-day-old culture. The contaminated wheat plants are incubated for 72 hours at 18° C. and at 100% relative humidity, and then for 21 to 28 days at 90% relative humidity.
Grading (% of efficacy) is carried out 21 to 28 days after the contamination, in comparison with the control plants.

[7] = tested on: Erysiphe graminis f.sp. horde; assay: In vivo test on Erysiphe graminis (barley mildew), preventive spray; conditions: Blumeria graminis, 168 h, barley young plants, evaluated 7 days after inoculation, good (at least 70%) to total protection
Experimental: In Vivo Test on Erysiphe Graminis (Barley Mildew) [table] To produce a suitable preparation of active compound, 1 part by weight of active compound or active compound combination is mixed with the stated amounts of solvent and emulsifier, and the concentrate is diluted with water to the desired concentration. Young plants are sprayed with the preparation of active compound or active compound combination at the stated rate of application. After the spray coating has dried on, the plants are dusted with spores of Erysiphe graminis f.sp. horde. The plants are placed in a greenhouse at a temperature of approximately 20° C. and a relative atmospheric humidity of approximately 80% to promote the development of mildew pustules. The test is evaluated 7 days after the inoculation. Under these conditions, good (at least 70%) to total protection is observed at a dose of 1000 ppm with the following compounds: 104, 160, 177, 178, 186, 192, 194, 203, 204, 205, 207, 210, 212, 213 and 435.

[8] = HPLC reversed-phase C 18, method A: 43° C., 0.1% aqueous phosphoric acid, acetonitrile
[9] = HPLC reversed-phase C 18, method B: 40° C., 0.1% aqueous formic acid and acetonitrile
[10] = LogP method A: HPLC reversed-phase C 18, 43° C., 0.1% aqueous phosphoric acid / acetonitrile
[11] = LogP method B: HPLC reversed-phase C 18, 40° C., 0.1% aqueous formic acid / acetonitrile

chromatographic logP [3, 8]	Structure (SMILES)	pest or weed control at 100 ppm [1] [%]	pest or weed control at 500 ppm [2] [%]	pest or weed control at 500 ppm [5] [%]	also measured
3.39	Cc1nn(C)c(F)c1C(=O)N(C1CC1)S(=O)(=O)c1ccc(-c2ccccc2)cc1 [Compound 209]	≥ 70	≥ 70		
3.42	Cc1nn(C)c(F)c1C(=O)N(C1CC1)S(=O)(=O)c1ccc(Oc2ccccc2)cc1 [Compound 187]	≥ 70	≥ 70		
2.43	Cc1ccccc1S(=O)(=O)N(C(=O)c1c(C)nn(C)c1F)C1CC1 [Compound 196]	≥ 70	≥ 70		
2.82	Cc1nn(C)c(F)c1C(=O)N(C1CC1)S(=O)(=O)c1cccc(O)c1 [Compound 176]	≥ 70	≥ 70		
2.61	Cc1cccc(S(=O)(=O)N(C(=O)c2c(C)nn(C)c2F)C2CC2)c1 [Compound 175]		≥ 70		
2.34	Cc1nn(C)c(F)c1C(=O)N(C1CC1)S(=O)(=O)c1ccccc1O [Compound 180]	≥ 70	≥ 70	≥ 70	
2.46	Cc1nn(C)c(F)c1C(=O)N(C1CC1)S(=O)(=O)c1ccc(F)cc1 [Compound 179]		≥ 70		
3.03	Cc1nn(C)c(F)c1C(=O)N(C1CC1)S(=O)(=O)c1cccc(C(F)(F)F)c1 [Compound 177]	≥ 70			pest or weed control at 1000 ppm [7]: ≥ 70%
3.5	Cc1nn(C)c(F)c1C(=O)N(C1CC1)S(=O)(=O)c1ccc(O)c(C(F)(F)F)c1 [Compound 194]	≥ 70			pest or weed control at 1000 ppm [7]: ≥ 70%
2.6	Cc1nn(C)c(F)c1C(=O)N(C1CC1)S(=O)(=O)c1ccccc1C(F)(F)F [Compound 207]	≥ 70			pest or weed control at 1000 ppm [7]: ≥ 70%

The remaining lines, values behind:

Structure (SMILES)	chromatographic logP [3, 8]	pest or weed control at 100 ppm [1] [%]	pest or weed control at 500 ppm [2] [%]	pest or weed control at 500 ppm [5] [%]	also measured
COc1nn(C)cc1C(=O)N(C1CC1)S(=O)(=O)c1ccc(Oc2ccccc2)cc1 [Compound 143]			≥ 70		
Cc1nn(C)c(F)c1C(=O)N(C1CC1)S(=O)(=O)c1ccc2c(c1)CCC(C)(C)O2 [Compound 456]				≥ 70	pest or weed control at 500 ppm [4]: ≥ 70%; pest or weed control at 500 ppm [6]: ≥ 70%
CCc1nn(C)c(F)c1C(=O)N(C1CC1)S(=O)(=O)c1c(O)cc(C(F)(F)F)cc1O [Compound 387]				≥ 70	pest or weed control at 500 ppm [6]: ≥ 70%; chromatographic logP [3, 9]: 3.8
Cc1cc(C)c(S(=O)(=O)N(C(=O)c2c(C)nn(C)c2F)C2CC2)c(C)c1 [Compound 189]	3.05		≥ 70		
Cc1nn(C)cc1C(=O)N(C1CC1)S(=O)(=O)c1ccccc1O [Compound 214]			≥ 70		LogP [3, 8]: 2.31
CCCCOc1ccc(S(=O)(=O)N(C(=O)c2cn(C)nc2OC)C2CC2)cc1 [Compound 262]				≥ 70	pest or weed control at 500 ppm [4]: ≥ 70%; pest or weed control at 500 ppm [6]: ≥ 70%
Cc1nn(C)c(F)c1C(=O)N(C1CC1)S(=O)(=O)c1ccc(C(F)(F)F)cc1O [Compound 213]	3.19	≥ 70			pest or weed control at 1000 ppm [7]: ≥ 70%
Cc1nn(C)c(F)c1C(=O)N(C1CC1)S(=O)(=O)c1cc(O)sc1O [Compound 435]					pest or weed control at 1000 ppm [7]: ≥ 70%; chromatographic logP [3, 10]: 3.16
CCOc1nn(C)cc1C(=O)N(C1CC1)S(=O)(=O)c1ccc(Oc2ccc(OC)cc2)c(O)c1 [Compound 531]				≥ 70	pest or weed control at 500 ppm [4]: ≥ 70%; pest or weed control at 500 ppm [6]: ≥ 70%; chromatographic logP [3, 11]: 3.8
CCOc1nn(C)cc1C(=O)N(C1CC1)S(=O)(=O)c1ccc(Oc2ccc(C)cc2)c(O)c1 [Compound 542]				≥ 70	pest or weed control at 500 ppm [4]: ≥ 70%; pest or weed control at 500 ppm [6]: ≥ 70%; chromatographic logP [3, 11]: 4.3
Cn1nc(C(F)F)c(C(=O)N(C2CC2)S(=O)(=O)c2cccc(O)c2O)c1F [Compound 104]		≥ 70		≥ 70	pest or weed control at 500 ppm [4]: ≥ 70%; pest or weed control at 1000 ppm [7]: ≥ 70%; chromatographic logP [3, 9]: 3.2
Cc1ccc(C)c(S(=O)(=O)N(C(=O)c2c(C)nn(C)c2F)C2CC2)c1 [Compound 198]	2.78	≥ 70	≥ 70		
CC1=C(C(=O)N(C2CC2)S(=O)(=O)c2ccccc2O)OCCS1 [Compound 652]			≥ 70		chromatographic logP [3, 10]: 2.78
Cc1nn(C)c(C)c1C(=O)N(C1CC1)S(=O)(=O)c1ccccc1O [Compound 215]	2.17		≥ 70		
CCc1nn(C)c(F)c1C(=O)N(C1CC1)S(=O)(=O)c1ccccc1Br [Compound 374]				≥ 70	pest or weed control at 500 ppm [6]: ≥ 70%; chromatographic logP [3, 9]: 2.7
